According to US20140057915A1, “KINASE INHIBITORS” (TOPIVERT PHARMA LIMITED, priority 2012, published 2014):

Key:
[1] = test system: ICAM-1 expression, BEAS2B cells; experiment: Poly I:C-induced ICAM-1 expression in BEAS2B cells; assay type: cell-based; conditions: Homo sapiens, BEAS-2B; read-out: Poly IC induced ICAM1 in BEAS2B, IC50
How it was run: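 Cell-based ELISA for surface ICAM-1 in human BEAS2B cells 18 h after transfection with the RNA-virus mimic poly I:C (1 μg/mL, with Oligofectamine), compounds added 2 h beforehand. OD450–655 divided by Crystal Violet OD595 per well; percent inhibition relative to vehicle.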

GSK3α [2] = molecular target: T1, GSK3α (Homo sapiens, UniProt P49840); experiment: GSK 3α enzyme inhibition (FRET), Method 1; assay type: biochemical; conditions: Table 4a1
How it was run: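 GSK3α was preincubated with test compound for 2 hr at RT, then a FRET peptide substrate and ATP were added for 1 hr. Protease development for 1 hr cleaved only non-phosphorylated peptide, and phosphorylation was read as the coumarin/fluorescein emission ratio. Concentrations given are those of the added solutions: enzyme 500 ng/mL, peptide 8 μM, ATP 40 μM.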

IFN gamma release, PBMCs = experiment: IFN gamma release in CD3/CD28 stimulated PBMC cells; assay type: cell-based; conditions: Homo sapiens, read-out: IC50 Values for Inhibition of Cytokine Release, PBMCs, IFNγ
GSK3α [3] = molecular target: T1, GSK3α; experiment: GSK 3α enzyme inhibition (FRET), Method 2; assay type: biochemical; conditions: Table 4a2, different laboratory
IL-8 release, PBMCs = experiment: LPS-induced IL-8 release in PBMC cells; assay type: cell-based; conditions: Homo sapiens, LPS stimulated, read-out: IC50 Values for Inhibition of Cytokine Release, PBMCs, IL-8
How it was run: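 PBMCs from healthy donors pretreated with compound for 2 h, then stimulated with 1 ng/ml LPS (E. coli 0111:B4) for 24 h at 37 °C, 5% CO2. Supernatant IL-8 and TNFα measured by sandwich ELISA with fluorescence read-out.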

IL-8 release, HT29 cells = experiment: IL-1β-induced IL-8 release in HT29 cells; assay type: cell-based; conditions: Homo sapiens, HT-29; IL-1β stimulated; read-out: IC50 Values for Inhibition of Cytokine Release, HT29 cells, IL-8
Procedure: (d) IL-1β-Induced IL-8 Release in HT29 Cells
HT29 cells, a human colon adenocarcinoma cell line, are plated in a 96 well plate (24 hrs) and pre-treated with compounds at the desired concentration for 2 hours before addition of 5 ng/ml of IL-1β (Abeam) for 24 hours, Supernatants are harvested for IL-8 quantification by Sandwich ELISA (Duo-set, R&D System). The IC50 is determined from the dose response curve.

T1 sequence (P49840 whole entry): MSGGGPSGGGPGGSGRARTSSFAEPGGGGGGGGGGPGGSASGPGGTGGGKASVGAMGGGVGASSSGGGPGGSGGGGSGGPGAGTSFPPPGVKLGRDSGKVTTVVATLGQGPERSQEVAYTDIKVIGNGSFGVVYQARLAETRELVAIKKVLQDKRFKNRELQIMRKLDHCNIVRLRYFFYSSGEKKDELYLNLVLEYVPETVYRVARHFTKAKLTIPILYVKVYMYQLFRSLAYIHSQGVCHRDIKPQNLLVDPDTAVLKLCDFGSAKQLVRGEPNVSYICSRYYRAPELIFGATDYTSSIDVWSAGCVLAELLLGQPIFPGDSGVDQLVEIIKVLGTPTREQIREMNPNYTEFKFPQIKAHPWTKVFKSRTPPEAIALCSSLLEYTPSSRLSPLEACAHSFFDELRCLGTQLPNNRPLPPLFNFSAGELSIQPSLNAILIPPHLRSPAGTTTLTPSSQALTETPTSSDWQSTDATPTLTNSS

| SMILES | IC50 [1] | IC50 (GSK3α [2]) | IC50 (IFN gamma release, PBMCs) | IC50 (GSK3α [3]) | IC50 (IL-8 release, PBMCs) | IC50 (IL-8 release, HT29 cells) |
| --- | --- | --- | --- | --- | --- | --- |
| COc1ccc(-n2nc(C(C)(C)C)cc2NC(=O)Nc2ccc(Oc3ccnc(Nc4cc(Br)cc(C(N)=O)c4)n3)c3ccccc23)cc1 [Example 42, 3-bromo-5-((4-((4-(3-(3-(tert-butyl)-1-(4-methoxyphenyl)-1H-pyrazol-5-yl)ureido)naphthalen-1-yl)oxy)pyrimidin-2-yl)amino)benzamide] | 2.3 nM | > 1390 nM | – | – | – | – |
| COc1cc(Nc2nccc(Oc3ccc(NC(=O)Nc4cc(C(F)(F)C(F)(F)F)nn4-c4ccc(C)cc4)c4ccccc34)n2)cc(C(=O)NCCN2CCOCC2)c1 [Example 9] | 6.9 nM | 8030 nM | 7.3 nM | 6510 nM | 2.3 nM | – |
| COc1ccc(-n2nc(C(C)C)cc2NC(=O)Nc2ccc(Oc3ccnc(Nc4cc(OC)cc(C(=O)NCCN5CCOCC5)c4)n3)c3ccccc23)cc1 [Example 53, 3-((4-((4-(3-(3-isopropyl-1-(4-methoxyphenyl)-1H-pyrazol-5-yl)ureido)naphthalen-1-yl)oxy)pyrimidin-2-yl)amino)-5-methoxy-N-(2-morpholinoethyl)benzamide] | 4 nM | > 13000 nM | – | 7260 nM | 3.1 nM | – |
| Cc1ccc(-n2nc(C(C)C)cc2NC(=O)Nc2ccc(Oc3ccnc(Nc4cc(C(=O)NCCN5CCOCC5)cc(C(F)(F)F)c4)n3)c3ccccc23)cc1 [Example 7, 3-((4-((4-(3-(3-isopropyl-1-(p-tolyl)-1H-pyrazol-5-yl)ureido)naphthalen-1-yl)oxy)pyrimidin-2-yl)amino)-N-(2-morpholinoethyl)-5-(trifluoromethyl)benzamide] | 1.5 nM | > 12600 nM | – | 12100 nM | 2.4 nM | – |
| C#Cc1cc(Nc2nccc(Oc3ccc(NC(=O)Nc4cc(C(C)(C)C)nn4-c4ccc(N(C)C)cc4)c4ccccc34)n2)cc(C(=O)NCCN2CCOCC2)c1 [Example 80, 3-((4-((4-(3-(3-(tert-Butyl)-1-(4-(dimethylamino)phenyl)-1H-pyrazol-5-yl)ureido)naphthalen-1-yl)oxy)pyrimidin-2-yl)amino)-5-ethynyl-N-(2-morpholinoethyl)-benzamide] | – | – | 1.8 nM | ≥ 12600 nM | 1.5 nM | 6.2 nM |
| COc1cc(Nc2nccc(Oc3ccc(NC(=O)Nc4cc(C5CC5)nn4-c4ccc(C)cc4)c4ccccc34)n2)cc(C(=O)NCCN2CCOCC2)c1 [Example 50, 3-((4-((4-(3-(3-cyclopropyl-1-(p-tolyl)-1H-pyrazol-5-yl)ureido)naphthalen-1-yl)oxy)pyrimidin-2-yl)amino)-5-methoxy-N-(2-morpholinoethyl)benzamide] | 16.6 nM | > 13300 nM | – | ≥ 13300 nM | 7.3 nM | – |
| C#Cc1cc(Nc2nccc(Oc3ccc(NC(=O)Nc4cc(C(C)(C)C)nn4-c4ccc(OC)cc4)c4ccccc34)n2)cc(C(=O)NCCN2CCOCC2)c1 [Example 77, 3-((4-((4-(3-(3-(tert-Butyl)-1-(4-methoxyphenyl)-1H-pyrazol-5-yl)ureido)-naphthalen-1-yl)oxy)pyrimidin-2-yl)amino)-5-ethynyl-N-(2-morpholinoethyl)benzamide] | – | – | 0.8 nM | 5950 nM | 1.1 nM | 2 nM |
| COc1cc(Nc2cc(Oc3ccc(NC(=O)Nc4cc(C(C)(C)C)nn4-c4ccc(C)cc4)c4ccccc34)ccn2)cc(C(=O)NCCN2CCOCC2)c1 [Example 1, 3-((4-((4-(3-(3-(tert-Butyl)-1-(p-tolyl)-1H-pyrazol-5-yl)ureido)naphthalen-1-yl)oxy)pyridin-2-yl)amino)-5-methoxy-N-(2-morpholinoethyl)benzamide] | 3.4 nM | 2860 nM | 3 nM | 6970 nM | 2.4 nM | 10.2 nM |
| COCCNC(=O)c1cc(Nc2nccc(Oc3ccc(NC(=O)Nc4cc(C(C)C)nn4-c4ccc(OC)cc4)c4ccccc34)n2)cc(OC)c1 [Example 11, 3-((4-((4-(3-(3-Isopropyl-1-(4-methoxyphenyl)-1H-pyrazol-5-yl)ureido)naphthalen-1-yl)oxy)pyrimidin-2-yl)amino)-5-methoxy-N-(2-methoxyethyl)benzamide] | 1.2 nM | > 14000 nM | – | 9950 nM | 3 nM | – |
| COc1cc(Nc2nccc(Oc3ccc(NC(=O)Nc4cc(C5(C)CC5)nn4-c4ccc(C)cc4)c4ccccc34)n2)cc(C(=O)NCCN2CCOCC2)c1 [Example 51, 3-methoxy-5-((4-((4-(3-(3-(1-methylcyclopropyl)-1-(p-tolyl)-1H-pyrazol-5-yl)ureido)naphthalen-1-yl)oxy)pyrimidin-2-yl)amino)-N-(2-morpholinoethyl)benzamide] | 3.6 nM | > 13000 nM | – | – | – | – |
| COc1ccc(-n2nc(C3(C)COC3)cc2NC(=O)Nc2ccc(Oc3ccnc(Nc4cccc(C(=O)NCCN5CCOCC5)c4)n3)c3ccccc23)cc1 [Example 23, 3-((4-((4-(3-(1-(4-methoxyphenyl)-3-(3-methyloxetan-3-yl)-1H-pyrazol-5-yl)ureido)naphthalen-1-yl)oxy)pyrimidin-2-yl)amino)-N-(2-morpholinoethyl)benzamide] | 27.7 nM | 2990 nM | – | – | – | – |
| COc1cc(Nc2nccc(Oc3ccc(NC(=O)Nc4cc(C(C)C)nn4-c4ccc(C)cc4)c4ccccc34)n2)cc(C(=O)NCCN2CCOCC2)c1 [Example 8, 3-((4-((4-(3-(3-Isopropyl-1-(p-tolyl)-1H-pyrazol-5-yl)ureido)naphthalen-1-yl)oxy)pyrimidin-2-yl)amino)-5-methoxy-N-(2-morpholinoethyl)benzamide] | 1.1 nM | 7950 nM | – | ≥ 13200 nM | 1.8 nM | 4.1 nM |
| C#Cc1cc(Nc2nccc(Oc3ccc(NC(=O)Nc4cc(C(C)C)nn4-c4ccc(C)cc4)c4ccccc34)n2)cc(C(=O)NCCN2CCOCC2)c1 [Example 46, 3-ethynyl-5-((4-((4-(3-(3-isopropyl-1-(p-tolyl)-1H-pyrazol-5-yl)ureido)naphthalen-1-yl)oxy)pyrimidin-2-yl)amino)-N-(2-morpholinoethyl)benzamide] | – | – | 2.7 nM | 11300 nM | 1.1 nM | 5.4 nM |
